In PubChem BioAssay (NCI) one finds TGI and GI50 data, which are given here for 22 compounds.

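48-hour exposure; five concentrations; linearly interpolated endpoints. GI50 = concentration required for 50% inhibition of growth. TGI denotes the concentration required for complete inhibition of growth.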 Bounds are passed on as bounds.

Among the test systems are DLD-1 colon; DMS 114 small cell lung; HOP-18 NSCLC; M19-MEL melanoma; SNB-78 CNS; XF 498 CNS; DMS 273 small cell lung; RXF-631 renal; MDA-N.
Holding throughout (assay): NCI-60 cell line screen, 48 h

With `O=C(Cc1ccccc1)N/N=C(/c1nc2ccc([N+](=O)[O-])cc2[nH]c1=O)C(O)c1ccco1` (stereo not drawn), the TGI with DLD-1 colon, with DMS 114 small cell lung, with HOP-18 NSCLC, in the experiment with M19-MEL melanoma, in the experiment with SNB-78 CNS and in the experiment with XF 498 CNS was greater than 100 µM throughout.
Take `C=CCC(O)c1cc(OC)ccc1OC` (stereo not drawn): the TGI with DMS 114 small cell lung, with DMS 273 small cell lung, in the experiment with M19-MEL melanoma, in the experiment on RXF-631 renal and with XF 498 CNS was greater than 100 µM in each case.
As to `CCOC(=O)C1=C(Nc2cccc3ccccc23)OCC1=O`, the TGI with DLD-1 colon, with DMS 273 small cell lung, with RXF-631 renal, in the experiment with SNB-78 CNS and in the experiment with XF 498 CNS was greater than 100 µM each time.
On to `Cn1c(=S)c2[nH]c(SCc3cccnc3)nc2n(C)c1=O`, for which the TGI in the experiment with MDA-N is greater than 100 µM.
On to `CCOc1cc(CCNC)c2c(ccc3ccc(OC)c(O)c32)c1OC`, for which, in the experiment on MDA-N, the TGI turned out to be 10.5 µM.
In the case of `NC(=O)/C=C/c1c[nH]c2nccnc12`, the TGI was 4.83 µM with DLD-1 colon; 8.53 µM with DMS 114 small cell lung; 10.5 µM in the experiment with DMS 273 small cell lung; 0.793 µM in the experiment with HOP-18 NSCLC; 79 µM in the experiment with M19-MEL melanoma; greater than 75.2 µM in the experiment on MDA-N.
Compound `COc1ccc2c3c1OC1C4(CCC5C(C2)N(CC2CC2)CCC351)OCCO4` (stereo not drawn) showed a TGI in the experiment with MDA-N greater than 100 µM.
On to `CC(C)=CC1(C)/C(=N\O)C(C)(CC(C)C)C(=O)N1O` (stereo not drawn), for which the TGI in the experiment on DLD-1 colon, in the experiment with DMS 114 small cell lung, in the experiment with DMS 273 small cell lung, in the experiment on M19-MEL melanoma, in the experiment on RXF-631 renal and in the experiment with SNB-78 CNS was greater than 100 µM in each case. In addition, the TGI with XF 498 CNS was greater than 100 µM.
Consider `CC1=C(C(=O)NCc2ccccc2)C(c2ccc(N(C)C)cc2)C(C(=O)NCc2ccccc2)=C(C)N1`, for which the TGI with DLD-1 colon, in the experiment on DMS 114 small cell lung, with DMS 273 small cell lung, with M19-MEL melanoma, in the experiment on RXF-631 renal and in the experiment with SNB-78 CNS was greater than 100 µM each time. For the same compound, the TGI in the experiment on XF 498 CNS was greater than 100 µM.
In the experiment on MDA-N, `CSc1ccc(NC(=O)CCl)cc1` gave a TGI greater than 10 µM.
Consider `CN(C)C(=S)/N=C(\N)N(C)C`, for which the TGI with DLD-1 colon, in the experiment on DMS 114 small cell lung, in the experiment with DMS 273 small cell lung, with HOP-18 NSCLC, in the experiment on M19-MEL melanoma and in the experiment with RXF-631 renal was greater than 100 µM in each case. The TGI with SNB-78 CNS and in the experiment with XF 498 CNS was greater than 100 µM each time.
For `CC1=CC[C@@H]2C(=O)C=CC=C[C@H]12.[C-]#[O+].[C-]#[O+].[C-]#[O+].[Fe]`, the GI50 with DLD-1 colon, in the experiment with DMS 114 small cell lung, in the experiment with HOP-18 NSCLC and in the experiment with M19-MEL melanoma was greater than 100 µM each time. Further, the TGI with DLD-1 colon, in the experiment with DMS 114 small cell lung, in the experiment with HOP-18 NSCLC and with M19-MEL melanoma was greater than 100 µM throughout.
On to `Cc1cccc(/C=N/N=C(\N)NO)n1`, for which the TGI in the experiment with DLD-1 colon, in the experiment on DMS 114 small cell lung, in the experiment with DMS 273 small cell lung, in the experiment with M19-MEL melanoma, in the experiment with RXF-631 renal and in the experiment with SNB-78 CNS was greater than 100 µM each time. In the experiment with XF 498 CNS, this compound registered a TGI greater than 100 µM.
For the compound `CC[C@H](C)C(=O)O[C@H]1C[C@@H](C)C=C2C=C[C@H](C)[C@H](CC[C@@H]3C[C@@H](O)CC(=O)O3)[C@H]21`, the TGI with DLD-1 colon, in the experiment on DMS 114 small cell lung, with DMS 273 small cell lung, in the experiment on HOP-18 NSCLC and in the experiment with M19-MEL melanoma was greater than 30 µM in each case.
Turning to `CC(C)(C)CC(C)(C)c1cc2c(O)c(c1)Cc1cc(C(C)(C)CC(C)(C)C)cc(c1O)Cc1cc(C(C)(C)CC(C)(C)C)cc(c1O)Cc1cc(C(C)(C)CC(C)(C)C)cc(c1O)Cc1cc(C(C)(C)CC(C)(C)C)cc(c1O)Cc1cc(C(C)(C)CC(C)(C)C)cc(c1O)Cc1cc(C(C)(C)CC(C)(C)C)cc(c1O)Cc1cc(C(C)(C)CC(C)(C)C)cc(c1O)C2`, the TGI in the experiment on DLD-1 colon, in the experiment on DMS 273 small cell lung, in the experiment with M19-MEL melanoma, with SNB-78 CNS and in the experiment with XF 498 CNS was greater than 100 µM throughout.
As for `CCCCCC/C=C\CCCCCCCCCc1cccc(OC)c1O`, the TGI in the experiment on MDA-N was greater than 100 µM.
Take `Cc1c(-c2cc(-c3ccccc3)n[nH]c2=O)c2ccccc2n1C`: the TGI in the experiment with DLD-1 colon, in the experiment on DMS 114 small cell lung, in the experiment with DMS 273 small cell lung, in the experiment on HOP-18 NSCLC, with M19-MEL melanoma and in the experiment on SNB-78 CNS was greater than 100 µM throughout. Moreover, in the experiment with XF 498 CNS, the TGI is greater than 100 µM.
Turning to `CC(NNC(=S)N1CCN(c2ccccn2)CC1)c1cccc[n+]1[O-]` (stereo not drawn), the TGI in the experiment on MDA-N was greater than 100 µM.
For `CNC(=O)NCCCCC(NC(=O)OCc1ccccc1)C(=O)OCc1ccccc1` (stereo not drawn), the TGI with DLD-1 colon is greater than 100 µM; with DMS 114 small cell lung, 65.7 µM; in the experiment on DMS 273 small cell lung it was greater than 100 µM; in the experiment with M19-MEL melanoma, 48 µM; in the experiment on RXF-631 renal it was 46.1 µM; with SNB-78 CNS, 70.8 µM. This compound also returned a TGI in the experiment on XF 498 CNS of 33.2 µM.
As to `O=C(/C=C/c1ccco1)N1CCN(Cc2ccccc2)CC1`, the TGI in the experiment on DLD-1 colon, with DMS 114 small cell lung, in the experiment on DMS 273 small cell lung, in the experiment on HOP-18 NSCLC, with M19-MEL melanoma and in the experiment with RXF-631 renal was greater than 100 µM in each case. The TGI in the experiment with SNB-78 CNS and in the experiment on XF 498 CNS was greater than 100 µM each time.
For the compound `C=CC(=O)OCCCS(=O)(=O)[O-].C=CC(=O)OCCCS(=O)(=O)[O-].NC1CCCCC1N.[Pt+4]`, the GI50 in the experiment on DLD-1 colon, in the experiment with DMS 273 small cell lung, with HOP-18 NSCLC, in the experiment with M19-MEL melanoma and in the experiment on SNB-78 CNS was greater than 25 µM each time. Also, the TGI with DLD-1 colon, in the experiment on DMS 273 small cell lung, in the experiment on HOP-18 NSCLC, with M19-MEL melanoma and in the experiment with SNB-78 CNS was greater than 25 µM each time.
In the experiment on MDA-N, `O=C(O)c1ccccc1C(=O)Nc1cc2c(cc1Br)-c1ccccc1C2=O` displayed a TGI greater than 100 µM.
